Experimental data published in patent publication US9790252B2, “2-fluorinated riboses and arabinoses and methods of use and synthesis” (CORNELL UNIVERSITY, priority 2009, dated 2017).

What was measured:
HEK293 and Neuro2A cells = assay: Immucillin-H effects on β-ara-Cl-NR toxicity (MTT); assay type: cell-based; conditions: 10 μM ImmH with 5-100 μM β-ara-Cl-NR, 12 hours
Description: We speculated that like NR, the chloro derivatives might degrade in cells by action of an enzyme that converts it to ribose-1-phosphate. This enzyme is called purine nucleoside phosphorylase (PNP). Immucillin-H (gift of Schramm lab) is a potent inhibitor of PNP. […] Assay: • 1. HEK293 and Neuro2A cells were seeded in 96-well plate at a density of 25,000 cells/well the day before the experiment starts; • 2. After the cells reach 50˜60% confluency, media was taken out, and 100 μL of fresh media was added to each well; • 3. β-ara-Cl-NR (black) and ImmH (bold) were plated according to the following Table 12: • 4. After 12 hours' incubation at 37° C., the media was taken out, 100 μL of fresh media was added to each well along with 20 μL of 5 mg/mL of MTT solution (in PBS); • 5. After 2 hours' incubation at 37° C., media was taken out and 100 μL of DMSO was added to each well, the plate was mixed on shaker for 5 mins; • 6. Absorbance was measured at 570 nm.

Neuro2A cells = assay: Toxicity to Neuro2A cells (MTT); assay type: cell-based; conditions: for 100 μM absorbance / 100 μM relative viability / 500 μM absorbance / 500 μM relative viability: 12 hours; for 100 μM absorbance / 500 μM absorbance: MTT 1.5 hours, 570 nm; for 100 μM relative viability / 500 μM relative viability: control = 1; for EC50: 2′-deoxy-2′-fluoro-nucleosides and nucleotides
Description: 6. Neuro2A cells were seeded in 96-well plate at a density of 25,000 cells/well the day before the experiment starts;
7. After the cells reach 50˜60% confluency, media was taken out, and 100 μL of fresh media was added to each well;
8. […]
9. After 12 hours' incubation at 37° C., the media was taken out, 100 μL of fresh media was added to each well along with 20 μL of 5 mg/mL of MTT solution (in PBS);
10. After 1.5 hours' incubation at 37° C., media was taken out and 100 μL of DMSO was added to each well, the plate was mixed on shaker for 5 mins;
(§1) Absorbance was measured at 570 nm.
Assay for Determining Toxicity to HEK293 and Neuro2A Cells • 1. HEK293 and Neuro2A cells were seeded in 96-well plate at a density of 25,000 cells/well the day before the experiment starts; • 2. After the cells reach 50˜60% confluency, media was taken out, and 100 μL of fresh media was added to each well; • 3. […] After 12 hours' incubation at 37° C., the media was taken out, 100 μL of fresh media was added to each well along with 20 μL of 5 mg/mL of MTT solution (in PBS); • 5. After 2 hours' incubation at 37° C., media was taken out and 100 μL of DMSO was added to each well, the plate was mixed on shaker for 5 mins; • 6. Absorbance was measured at 570 nm.

[1] = biological target: T1, cell developmental protein 38 (CD38) (Homo sapiens, UniProt P28907); conditions: mechanism-based inhibitor; previous studies (Refs. 10, 12); read-out: apparent Ki; cited from earlier work
T1 sequence (P28907 1-300): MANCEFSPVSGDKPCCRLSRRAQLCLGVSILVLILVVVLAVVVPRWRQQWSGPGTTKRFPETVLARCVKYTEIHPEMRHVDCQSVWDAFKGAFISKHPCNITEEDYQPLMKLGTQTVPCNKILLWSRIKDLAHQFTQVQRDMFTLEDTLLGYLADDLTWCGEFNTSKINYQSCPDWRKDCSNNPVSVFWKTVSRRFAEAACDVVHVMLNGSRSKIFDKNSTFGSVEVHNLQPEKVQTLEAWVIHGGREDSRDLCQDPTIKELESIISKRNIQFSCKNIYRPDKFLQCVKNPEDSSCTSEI

HEK293 cells = assay: Toxicity to HEK293 cells (MTT); assay type: cell-based; conditions: for 100 μM absorbance / 100 μM relative viability: HEK293, 100 μM; for 100 μM absorbance / 100 μM relative viability / 500 μM absorbance / 500 μM relative viability: 12 hours; for 100 μM absorbance / 500 μM absorbance: MTT 1.5 hours, 570 nm; for 100 μM relative viability / 500 μM relative viability: control = 1; for 500 μM absorbance / 500 μM relative viability: HEK293, 500 μM; for EC50: 2′-deoxy-2′-fluoro-nucleosides and nucleotides
Description: 1. HEK293 cells were seeded in 96-well plate at a density of 25,000 cells/well the day before the experiment starts;
2. After the cells reach 50˜60% confluency, media was taken out, and 100 μL of fresh media was added to each well;
3. F-derivatives were plated at 100 and 500 μM (in duplicates) concentrations;
4. After 12 hours' incubation at 37° C., the media was taken out, 100 μL of fresh media was added to each well along with 20 μL of 5 mg/mL of MTT solution (in PBS);
5. After 1.5 hours' incubation at 37° C., media was taken out and 100 μL of DMSO was added to each well, the plate was mixed on shaker for 5 mins;
as §1
Assay for Determining Toxicity to HEK293 and Neuro2A Cells • 1. HEK293 and Neuro2A cells were seeded in 96-well plate at a density of 25,000 cells/well the day before the experiment starts; • 2. After the cells reach 50˜60% confluency, media was taken out, and 100 μL of fresh media was added to each well; • 3. Cl-derivatives were plated at 100 and 500 μM (in duplicates) concentrations; • 4. After 12 hours' incubation at 37° C., the media was taken out, 100 μL of fresh media was added to each well along with 20 μL of 5 mg/mL of MTT solution (in PBS); • 5. After 2 hours' incubation at 37° C., media was taken out and 100 μL of DMSO was added to each well, the plate was mixed on shaker for 5 mins; • 6. Absorbance was measured at 570 nm.

SirT2 = biological target: T2, SirT2 (Homo sapiens, UniProt Q8IXJ6); assay: SirT2 activity assay (HPLC of 2′- and 3′-AADPR); assay type: biochemical; conditions: 800 μM NAD+, 500 μM H3 peptide, pH 7.5
T2 sequence (Q8IXJ6 1-389): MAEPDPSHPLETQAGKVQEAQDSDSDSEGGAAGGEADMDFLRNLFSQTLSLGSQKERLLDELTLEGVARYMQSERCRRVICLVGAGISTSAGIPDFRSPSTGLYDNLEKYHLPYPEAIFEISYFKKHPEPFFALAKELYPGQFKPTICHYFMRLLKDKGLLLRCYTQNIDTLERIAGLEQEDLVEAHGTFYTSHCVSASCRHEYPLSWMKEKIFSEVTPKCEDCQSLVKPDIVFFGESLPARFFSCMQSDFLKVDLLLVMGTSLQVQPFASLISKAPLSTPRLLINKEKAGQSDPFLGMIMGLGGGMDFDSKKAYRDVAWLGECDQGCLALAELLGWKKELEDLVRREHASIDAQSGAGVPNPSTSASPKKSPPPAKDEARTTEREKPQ
Description: (§2) Reactions containing 800 μM NAD^+, 500 μM H3 peptide, and 100 mM phosphate buffer at pH 7.5, with varying concentrations of 2′-deoxy-2′-fluoro-nucleosides or nucleotides were initiated by addition of SirT2 enzyme to a concentration of 16.6 μM. Reactions were incubated for 45 mins at 37° C. and quenched by addition of trifluoroacetic acid to pH 2. After centrifugation to remove precipitates, reactions were injected on HPLC for activity analysis. Production of 2′- and 3′-AADPR were analyzed at 260 nm.
as §2, with “SirT2 Activity Assay: Reactions containing” for “Reactions containing”, “concentrations of 2′-deoxy-2′-chloro-nucleosides were initiated” for “concentrations of 2′-deoxy-2′-fluoro-nucleosides or nucleotides were initiated”

SirT1 = biological target: T3, SirT1 (Homo sapiens, UniProt Q96EB6); assay: SirT1 activity assay (HPLC of 2′- and 3′-AADPR); assay type: biochemical; conditions: 200 μM NAD+, 100 μM JB12 peptide, pH 7.5, 30 mins at 37° C.
T3 sequence (Q96EB6 1-747): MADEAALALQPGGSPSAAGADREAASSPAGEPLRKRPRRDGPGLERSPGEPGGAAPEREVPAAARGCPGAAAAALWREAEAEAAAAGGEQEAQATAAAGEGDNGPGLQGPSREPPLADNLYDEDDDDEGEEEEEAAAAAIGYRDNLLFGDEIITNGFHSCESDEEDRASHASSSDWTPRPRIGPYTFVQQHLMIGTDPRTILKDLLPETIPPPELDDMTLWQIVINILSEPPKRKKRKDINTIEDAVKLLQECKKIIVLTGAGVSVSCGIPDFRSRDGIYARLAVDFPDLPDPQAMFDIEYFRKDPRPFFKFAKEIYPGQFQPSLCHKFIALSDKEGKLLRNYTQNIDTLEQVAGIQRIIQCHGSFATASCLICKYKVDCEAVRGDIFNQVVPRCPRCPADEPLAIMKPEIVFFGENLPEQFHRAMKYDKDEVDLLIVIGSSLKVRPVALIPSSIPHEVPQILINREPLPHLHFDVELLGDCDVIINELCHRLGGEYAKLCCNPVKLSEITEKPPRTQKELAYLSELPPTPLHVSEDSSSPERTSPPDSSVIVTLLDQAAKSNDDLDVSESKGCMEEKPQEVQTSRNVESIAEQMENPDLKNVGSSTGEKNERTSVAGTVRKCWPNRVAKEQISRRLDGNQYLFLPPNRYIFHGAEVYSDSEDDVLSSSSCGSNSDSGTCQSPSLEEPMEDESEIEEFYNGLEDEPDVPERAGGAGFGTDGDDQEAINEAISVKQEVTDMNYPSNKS
Description: as §2, with “200” for “800”, “100” for “500”, “JB12” for “H3”, “SirT1” for “SirT2”, “12.9” for “16.6”, “30” for “45”
SirT1 Activity Assay: Reactions containing 200 μM NAD^+, 100 μM JB12 peptide, and 100 mM phosphate buffer at pH 7.5, with varying concentrations of 2′-deoxy-2′-chloro-nucleosides were initiated by addition of SirT1 enzyme to a concentration of 12.9 μM. Reactions were incubated for 30 mins at 37° C. and quenched by addition of trifluoroacetic acid to pH 2. After centrifugation to remove precipitates, reactions were injected on HPLC for activity analysis. Production of 2′- and 3′-AADPR were analyzed at 260 nm.

SirT2 inhibition (in words) (SirT2)	Ki (SirT1) [µM]	SMILES	effect of PNP inhibition on β-ara-Cl-NR toxicity (HEK293 and Neuro2A cells)	100 μM absorbance (Neuro2A cells)	100 μM relative viability (Neuro2A cells)	500 μM absorbance (Neuro2A cells)	500 μM relative viability (Neuro2A cells)	EC50 (Neuro2A cells) [µM]	Ki [1] [nM]	100 μM absorbance (HEK293 cells)	100 μM relative viability (HEK293 cells)	500 μM absorbance (HEK293 cells)	500 μM relative viability (HEK293 cells)	EC50 (HEK293 cells; HEK293) [µM]	EC50 (Neuro2A cells; Mus musculus, N2a) [µM]	EC50 (HEK293 cells; Homo sapiens, HEK293, HEK293) [µM]
		O=c1[nH]cnc2c([C@@H]3N[C@H](CO)[C@@H](O)[C@H]3O)c[nH]c12 [Immucillin-H]	largely incapable of preventing this toxicity													
no inhibition		NC(=O)c1ccc[n+]([C@@H]2O[C@H](COP(=O)([O-])O)C(O)C2F)c1 (stereo partly drawn) [ara-F-NMN, 2′-deoxy-2′-fluoro-arabino-nicotinamide mononucleotide]		2.126	0.874	0.0143	0.006	164	61	1.267	0.5574	0	0	88		
	60	NC(=O)c1ccc[n+]([C@@H]2O[C@H](COP(=O)([O-])OP(=O)(O)OC[C@H]3O[C@@H](n4cnc5c(N)ncnc54)[C@H](O)[C@@H]3O)[C@@H](O)C2(F)F)c1 [gem-diF-NAD, 2′-deoxy-2′,2′-difluoro-NAD^+]		1.5765	0.648	1.1916	0.49			1.797	0.7905	1.556	0.6844		400	1130
